Laboratory results taken from ChEMBL document CHEMBL1201862, “PubChem BioAssay data set” (2004).
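1) Cells in 96-well plates. 2) Compound, 48 h, 5 concentrations. 3) Linear interpolation between surrounding doses. 4) Unreached endpoint = highest concentration. At the GI50, growth is halved.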 Active and inactive are the calls of the source. Cut-off read from the data, not from the text of the source: active = GI50 up to about 1.1 µM and inactive = higher.

Experiments:
Assay in all cases: NCI-60 cell line screen, 48 h
UO-31 = test system: UO-31
SK-MEL-5 = test system: SK-MEL-5
M14 = test system: M14
OVCAR-3 = test system: OVCAR-3
KM-20L2 = test system: KM-20L2
HCC 2998 = test system: HCC 2998
HOP-92 = test system: HOP-92
SNB-78 = test system: SNB-78
MOLT-4 = test system: MOLT-4
EKVX = test system: EKVX
HT-29 = test system: HT-29
K562 = test system: K562
HCT-15 = test system: HCT-15
SNB-75 = test system: SNB-75
KM12 = test system: KM12
A549 = test system: A549
SNB-19 = test system: SNB-19
HL-60 = test system: HL-60
UACC-62 = test system: UACC-62
NCI-H23 = test system: NCI-H23
IGROV-1 = test system: IGROV-1
UACC-257 = test system: UACC-257
SK-MEL-2 = test system: SK-MEL-2
SF-539 = test system: SF-539
A498 = test system: A498
HCT-116 = test system: HCT-116
786-0 = test system: 786-0
Malme-3M = test system: Malme-3M
OVCAR-8 = test system: OVCAR-8
OVCAR-4 = test system: OVCAR-4
M19-MEL = test system: M19-MEL
CCRF-CEM = test system: CCRF-CEM
LXFL 529 = test system: LXFL 529
DLD-1 = test system: DLD-1
HOP-62 = test system: HOP-62
OVCAR-5 = test system: OVCAR-5
LOX IMVI = test system: LOX IMVI
SK-MEL-28 = test system: SK-MEL-28
NCI-H522 = test system: NCI-H522
DMS-114 = test system: DMS-114
SK-OV-3 = test system: SK-OV-3
DMS-273 = test system: DMS-273
NCI-H460 = test system: NCI-H460
CAKI-1 = test system: CAKI-1
SF-268 = test system: SF-268
U-251 = test system: U-251
COLO 205 = test system: COLO 205
SW-620 = test system: SW-620
SN12C = test system: SN12C
SF-295 = test system: SF-295
ACHN = test system: ACHN
HOP-18 = test system: HOP-18
TK-10 = test system: TK-10
RXF 393 = test system: RXF 393
RPMI-8226 = test system: RPMI-8226
SR = test system: SR

## CCC1(N=[N+]=[N-])C(=O)Nc2cc(C)ccc2C1=O (stereo not given)
UO-31
  GI50: 46.7 µM (inactive)
SK-MEL-5
  GI50: 51.8 µM (inactive)
M14
  GI50: 76.7 µM (inactive)
OVCAR-3
  GI50: 45.6 µM (inactive)
KM-20L2
  GI50: > 100 µM (inactive)
HCC 2998
  GI50: > 100 µM (inactive)
HOP-92
  GI50: 46.1 µM (inactive)
SNB-78
  GI50: 86.1 µM (inactive)
MOLT-4
  GI50: 39.4 µM (inactive)
EKVX
  GI50: 42.7 µM (inactive)
HT-29
  GI50: 89.9 µM (inactive)
K562
  GI50: 47.5 µM (inactive)
HCT-15
  GI50: 72.1 µM
SNB-75
  GI50: > 100 µM (inactive)
KM12
  GI50: > 100 µM (inactive)
A549
  GI50: > 100 µM (inactive)
SNB-19
  GI50: > 100 µM (inactive)
HL-60
  GI50: 21.3 µM (inactive)
UACC-62
  GI50: 62.2 µM (inactive)
NCI-H23
  GI50: 70.1 µM (inactive)
IGROV-1
  GI50: > 100 µM (inactive)
UACC-257
  GI50: 96.4 µM (inactive)
SK-MEL-2
  GI50: > 100 µM (inactive)
SF-539
  GI50: > 100 µM (inactive)
A498
  GI50: > 100 µM (inactive)
HCT-116
  GI50: > 100 µM (inactive)
786-0
  GI50: > 100 µM (inactive)
Malme-3M
  GI50: 68.1 µM (inactive)
OVCAR-8
  GI50: > 100 µM (inactive)
OVCAR-4
  GI50: > 100 µM (inactive)
M19-MEL
  GI50: 60.3 µM (inactive)
CCRF-CEM
  GI50: 34.3 µM (inactive)
LXFL 529
  GI50: 38 µM (inactive)
DLD-1
  GI50: > 100 µM (inactive)
HOP-62
  GI50: > 100 µM (inactive)
OVCAR-5
  GI50: > 100 µM (inactive)
LOX IMVI
  GI50: 86.5 µM (inactive)
SK-MEL-28
  GI50: > 100 µM (inactive)
NCI-H522
  GI50: 4.25 µM (inactive)
DMS-114
  GI50: 38.1 µM (inactive)
SK-OV-3
  GI50: > 100 µM (inactive)
DMS-273
  GI50: 23 µM (inactive)
NCI-H460
  GI50: > 100 µM (inactive)
CAKI-1
  GI50: 36.9 µM (inactive)
SF-268
  GI50: > 100 µM (inactive)
U-251
  GI50: 96.2 µM (inactive)
COLO 205
  GI50: 69.3 µM (inactive)
SW-620
  GI50: > 100 µM (inactive)
SN12C
  GI50: 48.6 µM (inactive)
SF-295
  GI50: > 100 µM (inactive)
ACHN
  GI50: 22.3 µM (inactive)
HOP-18
  GI50: 32.6 µM (inactive)
TK-10
  GI50: > 100 µM (inactive)

## NC1=NS(=O)(=O)Nc2nc(-c3cccs3)[nH]c21
RXF 393
  GI50: > 100 µM (inactive)
UO-31
  GI50: > 100 µM (inactive)
SK-MEL-5
  GI50: > 100 µM (inactive)
M14
  GI50: > 100 µM (inactive)
OVCAR-3
  GI50: > 100 µM (inactive)
KM-20L2
  GI50: > 100 µM (inactive)
HCC 2998
  GI50: > 100 µM (inactive)
HOP-92
  GI50: > 100 µM (inactive)
MOLT-4
  GI50: > 100 µM (inactive)
HT-29
  GI50: > 100 µM (inactive)
K562
  GI50: > 100 µM (inactive)
HCT-15
  GI50: > 100 µM
SNB-75
  GI50: > 100 µM (inactive)
KM12
  GI50: > 100 µM (inactive)
A549
  GI50: > 100 µM (inactive)
SNB-19
  GI50: > 100 µM (inactive)
HL-60
  GI50: > 100 µM (inactive)
UACC-62
  GI50: > 100 µM (inactive)
NCI-H23
  GI50: > 100 µM (inactive)
IGROV-1
  GI50: > 100 µM (inactive)
SK-MEL-2
  GI50: > 100 µM (inactive)
RPMI-8226
  GI50: > 100 µM (inactive)
SF-539
  GI50: > 100 µM (inactive)
A498
  GI50: > 100 µM (inactive)
HCT-116
  GI50: > 100 µM (inactive)
786-0
  GI50: > 100 µM (inactive)
Malme-3M
  GI50: > 100 µM (inactive)
OVCAR-8
  GI50: > 100 µM (inactive)
SR
  GI50: > 100 µM (inactive)
OVCAR-4
  GI50: > 100 µM (inactive)
M19-MEL
  GI50: > 100 µM (inactive)
CCRF-CEM
  GI50: > 100 µM (inactive)
LXFL 529
  GI50: > 100 µM (inactive)
DLD-1
  GI50: > 100 µM (inactive)
HOP-62
  GI50: > 100 µM (inactive)
OVCAR-5
  GI50: > 100 µM (inactive)
LOX IMVI
  GI50: > 100 µM (inactive)
SK-MEL-28
  GI50: > 100 µM (inactive)
NCI-H522
  GI50: > 100 µM (inactive)
SK-OV-3
  GI50: > 100 µM (inactive)
DMS-273
  GI50: > 100 µM (inactive)
NCI-H460
  GI50: > 100 µM (inactive)
CAKI-1
  GI50: > 100 µM (inactive)
SF-268
  GI50: > 100 µM (inactive)
U-251
  GI50: > 100 µM (inactive)
COLO 205
  GI50: > 100 µM (inactive)
SW-620
  GI50: > 100 µM (inactive)
SN12C
  GI50: > 100 µM (inactive)
SF-295
  GI50: > 100 µM (inactive)
ACHN
  GI50: > 100 µM (inactive)
HOP-18
  GI50: > 100 µM (inactive)
TK-10
  GI50: > 100 µM (inactive)
